Test results from patent US20220220041A1, “USE OF UREA AS AN ANTIMICROBIAL ADDITIVE IN AN AQUEOUS SUSPENSION” (Omya International AG, priority 2019, published 2022).

Assays:
[1] = tested on: total viable bacteria, not inoculated; experiment: Example 2 preservation efficacy: H60 slurry with 61 wt.-% urea solution, control samples not inoculated, TVC; format: cell-based; conditions: inoculum none, 30° C.
Method: All quoted bacterial counts (Total viable counts (TVC) values), unless otherwise indicated, are given in cfu/ml and determined after at least 2 days following plate-out and incubation at 30° C. and in accordance with the counting method described in “Bestimmung von aerobe mesophilen Keimen”, Schweizerisches Lebensmittelbuch, chapter 56, section 7.01, edition of 1985, revised version of 1988.
Unless otherwise stated, per tryptic soy agar plate (TSA, prepared using BD 236950) 0.1 ml of a solution or suspension is plated. Counts from 10000 cfu/ml to 99999 cfu/ml are reported as >1E4 cfu/ml. Counts from 100000 cfu/ml to 999999 cfu/ml are reported as >1E5 cfu/ml. Counts above 1000000 cfu/ml are reported as >1E6 cfu/ml.
50 g sterile slurry H60 with a solid content of 76.5 wt.-%, based on the total weight of the H60 slurry is supplemented with different amounts of 61 wt.-% urea solution or water. The samples are then inoculated with 1 ml non-sterile calcium carbonate slurry (H60), 1 ml non-sterile calcium carbonate slurry (H90), 0.02 ml overnight culture of Escherichia coli (DSMZ 46295) and 0.02 ml overnight culture of Pseudomonas putida. The control samples are not inoculated. Samples are incubated at 30° C. and the TVC and pH are determined at various time points (0 day, 1 day, 4, days, 8 days, 9 days and/or 13 days).

[2] = pH measurement of the suspension; format: physicochemical; conditions: 30° C.; for pH Day 8: Table 2; for pH Day 4: Table 3; for pH Day 11: Table 5; for pH Day 16: industrial grade urea 5.5%, calcium carbonate 69%, water 25.5% w/w
Method: The pH of a suspension is measured at 25° C. using a Mettler Toledo Seven Easy pH meter and a Mettler Toledo InLab® Expert Pro pH electrode. A three point calibration (according to the segment method) of the instrument is first made using commercially available buffer solutions having pH values of 4, 7 and 10 at 20° C. (from Aldrich). The reported pH values are the endpoint values detected by the instrument (the endpoint is when the measured signal differs by less than 0.1 mV from the average over the last 6 s).

[3] = Table 2, urea 2.75%, calcium carbonate 73.1%, water 24.15% w/w
[4] = Table 2, urea 7.6%, calcium carbonate 67.1%, water 25.3% w/w
[5] = Table 3, urea 1.28%, calcium carbonate 74.9%, water 23.82% w/w
[6] = Table 3, urea 2.75%, calcium carbonate 73.1%, water 24.15% w/w
[7] = urea 2.75%, calcium carbonate 73.1%, water 24.15% w/w, inoculum none

SMILES: NC(N)=O [urea]
- TVC cfu/ml Day 4 [1, 3]: <100 cfu/ml
- TVC cfu/ml Day 8 [1, 3]: <100 cfu/ml
- TVC cfu/ml Day 13 [1, 3]: <100 cfu/ml
- TVC cfu/ml Day 1 ([1]; Table 2, urea 2.75%, calcium carbonate 73.1%, water 24.15% w/w, detection limit 100 cfu/ml): <100 cfu/ml
- TVC cfu/ml Day 1 [1, 4]: <100 cfu/ml
- TVC cfu/ml Day 4 [1, 4]: <100 cfu/ml
- TVC cfu/ml Day 8 [1, 4]: <100 cfu/ml
- TVC cfu/ml Day 13 [1, 4]: <100 cfu/ml
- TVC cfu/ml Day 4 ([1]; Table 3, urea 0.65%, calcium carbonate 75.7%, water 23.65% w/w): <100 cfu/ml
- TVC cfu/ml Day 1 ([1]; Table 3, urea 0.65%, calcium carbonate 75.7%, water 23.65% w/w, detection limit 100 cfu/ml): <100 cfu/ml
- TVC cfu/ml Day 1 [1, 5]: <100 cfu/ml
- TVC cfu/ml Day 4 [1, 5]: <100 cfu/ml
- TVC cfu/ml Day 1 [1, 6]: <100 cfu/ml
- TVC cfu/ml Day 4 [1, 6]: <100 cfu/ml
- TVC cfu/ml Day 9 [1, 6]: <100 cfu/ml
- pH Day 8 [2, 7]: 9.16
- pH Day 8 ([2]; urea 7.6%, calcium carbonate 67.1%, water 25.3% w/w, inoculum none): 9.25
- pH Day 4 ([2]; urea 0.65%, calcium carbonate 75.7%, water 23.65% w/w, inoculum none): 9.06
- pH Day 4 ([2]; urea 1.28%, calcium carbonate 74.9%, water 23.82% w/w, inoculum none): 9.05
- pH Day 4 [2, 7]: 9.11
- pH Day 11 ([2]; urea 0.40%, calcium carbonate 75.61%, water 23.99% w/w, inoculum H60): 9.05
- pH Day 11 ([2]; urea 1.10%, calcium carbonate 75.48%, water 23.42% w/w, inoculum H60): 9.25
- pH Day 11 ([2]; urea 2.80%, calcium carbonate 75.21%, water 21.98% w/w, inoculum H60): 9.10
- pH Day 16 ([2]; inoculum E. coli): 9.02
- pH Day 16 ([2]; inoculum H60): 9.00
- pH Day 16 ([2]; inoculum H90): 8.97
- pH Day 16 ([2]; inoculum P. putida): 9.04
- pH Day 16 ([2]; inoculum none): 9.02
